Measurements reported in patent US7678918B2, “Intermediates for imidazonaphthyridines” (3M Innovative Properties Company, priority 1997, dated 2010).
Structures can show the parent of a compound that is named as a salt. Blank lines part the entries; values can stand above or below the compound they belong to.

Columns and labels:
IFN = assay: Cytokine Induction in Human Cells: interferon (IFN) secreted by PBMCs, A549/encephalomyocarditis bioassay; format: cell-based; conditions: 18 to 24 hours; further: call rule not given here
In short: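 Human PBMCs from healthy donors at 1.5-2×10^6 cells/mL in RPMI with 10% FBS, exposed to compounds (typically 0.1 to 100 μM, ≤1% DMSO) for 18 to 24 h at 37° C. Secreted IFN measured by A549/encephalomyocarditis virus cytopathic-effect bioassay, in alpha reference units/mL against NIH human leukocyte IFN standard.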

TNF = assay: Cytokine Induction in Human Cells: tumor necrosis factor (TNF) secreted by PBMCs, ELISA; format: cell-based; conditions: 18 to 24 hours; further: call rule not given here
In short: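 Human donor PBMCs at 1.5-2×10^6 cells/mL in RPMI with 10% FBS were exposed to compound, generally at 0.1 to 100 μM (≤1% DMSO final), for 18 to 24 h at 37 °C. Secreted TNF in supernatant was measured by ELISA and reported as pg/mL.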

- melting point: 208 to 210 °C
Structure (SMILES): CCCCc1nc2c(N)nc3c(c2n1CCNC(=O)c1cc(C(C)(C)C)c(O)c(C(C)(C)C)c1)NCCC3 [Example 104, N^1-[2-(4-Amino-2-butyl-6,7,8,9-tetrahydro-1H-imidazo[4,5-c][1,5]naphthyridin-1-yl)ethyl]-3,5-di-(1,1-dimethylethyl)-4-hydroxybenzamide]
- IFN induction (IFN; Dose Concentration 0.1 μM): −
- IFN induction (IFN; Dose Concentration 1.0 μM): +
- IFN induction (IFN; Dose Concentration 10.0 μM): +
- IFN induction (IFN; Dose Concentration 100.0 μM): −
- TNF induction (TNF; Dose Concentration 0.1 μM): −
- TNF induction (TNF; Dose Concentration 1.0 μM): −
- TNF induction (TNF; Dose Concentration 10.0 μM): +
- TNF induction (TNF; Dose Concentration 100.0 μM): −

- melting point: 163 to 164 °C
Structure (SMILES): CCCCc1nc2c(N)nc3cccnc3c2n1CCNC(=O)CC(C)CCC=C(C)C (stereo not shown) [Example 100, N^1-[2-(4-Amino-2-butyl-1H-imidazo[4,5-c][1,5]naphthyridin-1-yl)ethyl]-3,7-dimethyl-6-octenamide]
- IFN induction (IFN; Dose Concentration 0.1 μM): −
- IFN induction (IFN; Dose Concentration 1.0 μM): −
- IFN induction (IFN; Dose Concentration 10.0 μM): +
- IFN induction (IFN; Dose Concentration 100.0 μM): +
- TNF induction (TNF; Dose Concentration 0.1 μM): −
- TNF induction (TNF; Dose Concentration 1.0 μM): −
- TNF induction (TNF; Dose Concentration 10.0 μM): +
- TNF induction (TNF; Dose Concentration 100.0 μM): +

Structure (SMILES): CCCCOCCCn1c(CCCC)nc2c(N)nc3cccnc3c21 [Example 80, 1-(3-Butoxypropyl)-2-butyl-1H-imidazo[4,5-c][1,5]naphthyridin-4-amine]
- IFN induction (IFN; Dose Concentration 0.1 μM): −
- IFN induction (IFN; Dose Concentration 1.0 μM): +
- IFN induction (IFN; Dose Concentration 10.0 μM): +
- IFN induction (IFN; Dose Concentration 100.0 μM): −
- TNF induction (TNF; Dose Concentration 0.1 μM): −
- TNF induction (TNF; Dose Concentration 1.0 μM): −
- TNF induction (TNF; Dose Concentration 10.0 μM): +
- TNF induction (TNF; Dose Concentration 100.0 μM): −
- melting point: 101 to 101.5 °C

- melting point: 211 to 213 °C
Structure (SMILES): CC(C)(O)Cn1c(Cc2ccccc2)nc2c(N)nc3cccnc3c21 [Example 65, 1,1-Dimethyl-2-(4-amino-2-phenylmethyl[1,5]napthyridin-1-yl)ethanol]
- IFN induction (IFN; Dose Concentration 0.1 μM): +
- IFN induction (IFN; Dose Concentration 1.0 μM): +
- IFN induction (IFN; Dose Concentration 10.0 μM): +
- IFN induction (IFN; Dose Concentration 100.0 μM): +
- TNF induction (TNF; Dose Concentration 0.1 μM): −
- TNF induction (TNF; Dose Concentration 1.0 μM): +
- TNF induction (TNF; Dose Concentration 10.0 μM): +
- TNF induction (TNF; Dose Concentration 100.0 μM): +

- melting point: 95 to 100 °C
Structure (SMILES): CCCCc1nc2c(N)nc3cccnc3c2n1CCCCNC(=O)c1ccc(N2CCOCC2)nc1 (hydrate or solvate) [Example 106, N^1-[4(4-Amino-2-butyl-1H-imidazo[4,5-c][1,5]naphthyridin-1-yl)butyl]-6-morpholinonicotinamide]

- melting point: 177 to 179 °C
Structure (SMILES): CCCCc1nc2c(N)nc3cccnc3c2n1CC(C)(C)O [Example 62, 1,1-Dimethyl-2-(4-amino-2-butyl[1,5]napthyridin-1-yl)ethanol]
- IFN induction (IFN; Dose Concentration 0.1 μM): +
- IFN induction (IFN; Dose Concentration 1.0 μM): +
- IFN induction (IFN; Dose Concentration 10.0 μM): +
- IFN induction (IFN; Dose Concentration 100.0 μM): +
- TNF induction (TNF; Dose Concentration 0.1 μM): +
- TNF induction (TNF; Dose Concentration 1.0 μM): +
- TNF induction (TNF; Dose Concentration 10.0 μM): +
- TNF induction (TNF; Dose Concentration 100.0 μM): +

- melting point: 181 to 182.5 °C
Structure (SMILES): CC(C)Cn1nnc2c3ncnc-3c3ccncc3n21 [Example 21, 1-(2-Methylpropyl)-1H-tetrazolo[1,5-a]imidazo[4,5-c][1,7]naphthyridine]

- melting point: 203 to 204.5 °C
Structure (SMILES): CC(C)CNc1c(N)c2nnnn2c2cnccc12 [Example 20, N^5-(2-Methylpropyl)tetrazolo[1,5-a][1,7]naphthyridin-4,5-diamine]

- melting point: 236 °C (dec.)
Structure (SMILES): Oc1cc2nnnn2c2ncccc12 [Example 3, Tetrazolo[1,5-a][1,8]naphthyridin-5-ol]

- melting point: 82 to 84 °C
Structure (SMILES): CC(C)Cn1cnc2cnc3cccnc3c21 [Example 30, 1-(2-Methylpropyl)-1H-imidazo[4,5-c][1,5]naphthyridine]

- melting point: 127 to 129 °C
Structure (SMILES): O=[N+]([O-])c1cnc2cccnc2c1NCc1ccccc1 [Example 66, N-Phenylmethyl-3-nitro[1,5]naphthyridin-4-amine]

- melting point: 161 to 163 °C
Structure (SMILES): NCCCCn1cnc2c(N)nc3cccnc3c21 [Example 111, 4-(4-amino-1H-imidazo[4,5-c][1,5]naphthyridin-1-yl)butaneamine]
- IFN induction (IFN; Dose Concentration 0.1 μM): −
- IFN induction (IFN; Dose Concentration 1.0 μM): −
- IFN induction (IFN; Dose Concentration 10.0 μM): +
- IFN induction (IFN; Dose Concentration 100.0 μM): +
- TNF induction (TNF; Dose Concentration 0.1 μM): −
- TNF induction (TNF; Dose Concentration 1.0 μM): −
- TNF induction (TNF; Dose Concentration 10.0 μM): +
- TNF induction (TNF; Dose Concentration 100.0 μM): +

- melting point: 97 to 99 °C
Structure (SMILES): CC(C)CNc1c([N+](=O)[O-])cnc2cccnc12 [Example 29, N^4-(2-Methylpropyl)-3-nitro[1,5]naphthyridin-4-amine]

- melting point: 171 °C (dec.)
Structure (SMILES): CC(C)CNc1c([N+](=O)[O-])c2nnnn2c2ncccc12 [Example 6, N^5-(2-Methylpropyl)-4-nitrotetrazolo[1,5-a][1,8]naphthyridin-5-amine]

- melting point: 188 to 189 °C
Structure (SMILES): CCCCc1nc2c(N)nc3cccnc3c2n1CCNC(=O)c1c(C)noc1C [Example 103, N-[2-(4-Amino-2-butyl-1H-imidazo[4,5-c][1,5]naphthyridin-1-yl)ethyl]-3,5-dimethyl-4-isoxazolecarboxamide]
- IFN induction (IFN; Dose Concentration 0.1 μM): −
- IFN induction (IFN; Dose Concentration 1.0 μM): −
- IFN induction (IFN; Dose Concentration 10.0 μM): +
- IFN induction (IFN; Dose Concentration 100.0 μM): +
- TNF induction (TNF; Dose Concentration 0.1 μM): −
- TNF induction (TNF; Dose Concentration 1.0 μM): −
- TNF induction (TNF; Dose Concentration 10.0 μM): +
- TNF induction (TNF; Dose Concentration 100.0 μM): +

- melting point: 118 to 120 °C
Structure (SMILES): CCCCc1nc2c(N)nc3cccnc3c2n1CCNC(=O)OC(C)(C)C [Example 90, 1,1-Dimethylethyl N-[2-(4-Amino-2-butyl-1H-imidazo[4,5-c][1,5]naphthyridin-1-yl)ethyl]carbamate]
- IFN induction (IFN; Dose Concentration 0.1 μM): ±
- IFN induction (IFN; Dose Concentration 1.0 μM): +
- IFN induction (IFN; Dose Concentration 10.0 μM): +
- IFN induction (IFN; Dose Concentration 100.0 μM): +
- TNF induction (TNF; Dose Concentration 0.1 μM): −
- TNF induction (TNF; Dose Concentration 1.0 μM): −
- TNF induction (TNF; Dose Concentration 10.0 μM): +
- TNF induction (TNF; Dose Concentration 100.0 μM): +

- melting point: 178 to 180 °C
Structure (SMILES): Cc1nnnn1-c1ncccc1C(=O)O [Example 1, 2-(5-Methyl-1H-tetrazol-1-yl)nicotinic Acid]

- melting point: 173 to 174 °C
Structure (SMILES): CC(C)CNc1c([N+](=O)[O-])c2nnnn2c2cnccc12 [Example 19, N^5-(2-Methylpropyl)-4-nitrotetrazolo[1,5-a][1,7]naphthyridin-5-amine]

- melting point: 81 to 84 °C
Structure (SMILES): CCCCc1nc2c(N)nc3c(c2n1CC(C)C)CCCN3 (hydrate or solvate) [Example 13, 2-Butyl-6,7,8,9-tetrahydro-1-(2-methylpropyl) 1H-imidazo[4,5-c][1,8]naphthyridin-4-amine]

- melting point: 150 to 150.5 °C
Structure (SMILES): CCCCc1nc2cnc3cccnc3c2n1CCOc1ccccc1 [Example 83, 2-(2-Butyl-1H-imidazo[4,5-c][1,5]naphthyridin-1-yl)ethyl Phenyl Ether]

- melting point: 176 to 177 °C
Structure (SMILES): Clc1cc2nnnn2c2cnccc12 [Example 17, 5-Chlorotetrazolo[1,5-a][1,7]naphthyridine]

- melting point: 205 to 212 °C
Structure (SMILES): CCOCC(=O)Nc1cnc2cccnc2c1NCc1ccccc1.Cl

Structure (SMILES): CCCCOCCCn1c(CCCC)nc2cnc3cccnc3c21 [Example 78, 1-(3-Butoxypropyl)-2-butyl-1H-imidazo[4,5-c][1,5]naphthyridine]
- melting point: 56.5 to 57.5 °C

- melting point: 183 to 185 °C
Structure (SMILES): CCCCc1nc2c(N)nc3cccnc3c2n1CCNC(=O)CCc1ccccc1 (as salt: hydrochloride) [Example 96, N^1-[2-(4-Amino-2-butyl-1H-imidazo[4,5-c][1,5]naphthyridin-1-yl)ethyl]-3-phenylpropanamide Hydrochloride]

- melting point: 214 to 215 °C (dec.)
Structure (SMILES): Cc1nnnn1-c1cnccc1C(=O)O [Example 14, 3-(5-Methyl-1H-tetrazol-1-yl)pyridine-4-carboxylic acid]

- melting point: 149 to 151 °C
Structure (SMILES): CC(C)(C)OC(=O)NCCNc1c([N+](=O)[O-])cnc2cccnc12 [Example 86, 1,1-Dimethylethyl N-{2-[(3-Nitro[1,5]naphthyridin-4-yl)amino]ethyl}carbamate]

- melting point: 229 to 230 °C (dec.)
Structure (SMILES): Clc1cc2nnnn2c2ncccc12 [Example 4, 5-Chlorotetrazolo[1,5-a][1,8]naphthyridine]

- melting point: 325 to 330 °C (dec.)
Structure (SMILES): CC(C)Cn1cnc2c(N)nc3ncccc3c21 (hydrate or solvate) [Example 9, 1-(2-Methylpropyl)-1H-imidazo[4,5-c][1,8]naphthyridin-4-amine hydrate]

- melting point: 137 to 138 °C
Structure (SMILES): CC(C)(C)OC(=O)NCCCCNc1c([N+](=O)[O-])cnc2cccnc12 [Example 41, 1,1-Dimethylethyl N-{4-[(3-Nitro[1,5]naphthyridin-4-yl)amino]butyl}carbamate]

- melting point: 184.5 to 186 °C
Structure (SMILES): CC(C)(O)CNc1c([N+](=O)[O-])cnc2cccnc12 [Example 59, 1,1-Dimethyl-2-[(3-nitro[1,5]naphthyridin-4-yl)amino]ethanol]

- melting point: 247 to 248 °C (dec.)
Structure (SMILES): O.Oc1cc2nnnn2c2cnccc12 (hydrate or solvate)

- melting point: 248 to 250 °C (dec.)
Structure (SMILES): CC(C)Cn1nnn2c3ncccc3c3ncnc-3c12 [Example 8, 1-(2-Methylpropyl)-1H-tetrazolo[1,5-a]imidazo[4,5-c][1,8]naphthyridine]

- melting point: 96 to 98 °C
Structure (SMILES): CCCCc1nc2cnc3cccnc3c2n1CCCCNC(=O)OC(C)(C)C [Example 43, 1,1-Dimethylethyl N-[4-(2-Butyl-1H-imidazo[4,5-c][1,5]naphthyridin-1-yl)butyl]carbamate]
